This assay has as its target LsrK (Salmonella typhimurium, UniProt Q8ZKQ6). In words: biochemical. To be noted: for Inhibition (%): 50 µM. The format is biochemical, S. typhimurium.

Where a name gives a salt, the structure may show the parent alone.

Experimental findings from paper PMC6627609, “Targeting Quorum Sensing: High-Throughput Screening to Identify Novel LsrK Inhibitors” (International Journal of Molecular Sciences, 2019) are described below.

Sequence of LsrK (Q8ZKQ6 whole entry): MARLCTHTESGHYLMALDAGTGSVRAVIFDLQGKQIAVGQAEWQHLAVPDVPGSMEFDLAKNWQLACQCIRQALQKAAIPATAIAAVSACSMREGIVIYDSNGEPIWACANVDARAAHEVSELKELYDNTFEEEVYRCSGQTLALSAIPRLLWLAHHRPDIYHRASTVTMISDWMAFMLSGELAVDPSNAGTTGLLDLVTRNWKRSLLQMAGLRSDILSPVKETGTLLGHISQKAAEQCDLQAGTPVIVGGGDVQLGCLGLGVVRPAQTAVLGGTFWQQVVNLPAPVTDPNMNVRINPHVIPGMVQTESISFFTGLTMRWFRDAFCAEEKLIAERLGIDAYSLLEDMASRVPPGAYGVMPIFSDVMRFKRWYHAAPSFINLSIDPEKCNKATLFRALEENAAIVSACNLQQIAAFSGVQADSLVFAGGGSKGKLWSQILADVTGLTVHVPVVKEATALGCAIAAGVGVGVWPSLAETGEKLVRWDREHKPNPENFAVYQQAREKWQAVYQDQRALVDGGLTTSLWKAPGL

Turning to `CO[C@@H]1[C@@H](OC(N)=O)[C@@H](O)[C@H](Oc2ccc3c(O)c(NC(=O)c4ccc(O)c(CC=C(C)C)c4)c(=O)oc3c2C)OC1(C)C` [NOVOBIOCIN SODIUM], the inhibition at 50 µM came out at 0%.

With `C[C@@H]1[C@H](O)[C@@H](C)/C=C/C=C/CC/C=C/C=C/C=C/C=C/C(O[C@H]2O[C@H](C)[C@@H](O)[C@H](N)[C@@H]2O)CC2O[C@](O)(CC(O)C(O)CCC(O)CC(O)CC(O)CC(=O)O[C@H]1C)CC(O)C2C(=O)O` (stereo partly drawn) [NYSTATIN], the “Inhibition (%)” value stood at 41.

Regarding `COC1=CC(=O)C(O)=C/C1=C\C=C\c1ccccc1` [OBTUSAQUINONE], the inhibition at 50 µM stood at 130%.

Take `NCC(O)c1ccc(O)cc1` (stereo not drawn) [OCTOPAMINE HYDROCHLORIDE]: the inhibition at 50 µM is 2%.

With `CC1COc2c(N3CCN(C)CC3)c(F)cc3c(=O)c(C(=O)O)cn1c23` (stereo not drawn) [OFLOXACIN], the inhibition at 50 µM turned out to be 4%.

For the compound `CC(=O)O[C@H]1CC[C@]2(C)[C@H]3CC=C4[C@@H]5CC(C)(C)CC[C@]5(C(=O)O)CC[C@@]4(C)[C@]3(C)CC[C@H]2C1(C)C` [OLEANOLIC ACID ACETATE], the “Inhibition (%)” value is given as 14.

In the case of `CCCc1nc(C(C)(C)O)c(C(=O)OCc2oc(=O)oc2C)n1Cc1ccc(-c2ccccc2-c2nnn[nH]2)cc1` [OLMESARTAN MEDOXOMIL], the inhibition at 50 µM was determined as 0%.

For `COc1ccc2[nH]c([S+]([O-])Cc3ncc(C)c(OC)c3C)nc2c1` (stereo not drawn) [OMEPRAZOLE], the inhibition at 50 µM is 6%.

`COc1ccc(CC(=O)c2ccc(O)cc2O)cc1` [ONONETIN]: the inhibition at 50 µM was 5%.

`NCCC[C@H](N)C(=O)O` [ORNITHINE]: the inhibition at 50 µM was determined as 1%.

As for `O=C(O)c1cc(=O)[nH]c(=O)[nH]1` [OROTIC ACID], the inhibition at 50 µM is 1%.

Turning to `CN1CCCN=C1/C=C/c1cccc(O)c1.O=C(O)c1cc2ccccc2c(Cc2c(O)c(C(=O)O)cc3ccccc23)c1O` [OXANTEL PAMOATE], the “Inhibition (%)” value was determined as 6.

On to `O=C(O)CCc1nc(-c2ccccc2)c(-c2ccccc2)o1` [OXAPROZIN], for which the inhibition at 50 µM stood at 13%.

In the case of `CN(C(=O)CN(CCO)CC(=O)N(C)C(C)(C)Cc1ccccc1)C(C)(C)Cc1ccccc1` [OXETHAZAINE], the inhibition at 50 µM turned out to be 0%.

As for `COC(=O)Nc1nc2ccc([S+]([O-])c3ccccc3)cc2[nH]1` (stereo not drawn) [OXFENDAZOLE], the inhibition at 50 µM came to 27%.

For `CCCOc1ccc2nc(NC(=O)OC)[nH]c2c1` [OXIBENDAZOLE], the inhibition at 50 µM was 2%.

Take `NCCc1cc(O)c(O)cc1O` [OXIDOPAMINE HYDROCHLORIDE]: the inhibition at 50 µM amounted to 117%.

Consider `CCn1cc(C(=O)O)c(=O)c2cc3c(cc21)OCO3` [OXOLINIC ACID], for which the inhibition at 50 µM was 1%.

With `COC[C@]12CN(C=O)[C@@H]3[C@@H]4[C@H](OC)[C@H]1[C@@]3([C@@H](OC)C[C@H]2O)[C@@H]1C[C@@]2(O)[C@H](OC(=O)c3ccccc3)[C@@H]1[C@]4(OC(C)=O)[C@@H](O)[C@@H]2OC` [OXONITINE], the “Inhibition (%)” value is listed as 0.

In the case of `CCCCC1C(=O)N(c2ccccc2)N(c2ccc(O)cc2)C1=O` (stereo not drawn) [OXYPHENBUTAZONE], the inhibition at 50 µM worked out at 93%.

As to `CC[N+](C)(CC)CCOC(=O)C(O)(c1ccccc1)C1CCCCC1` (stereo not drawn) [OXYPHENONIUM BROMIDE], the inhibition at 50 µM came to 4%.

With `CN(C)[C@@H]1C(O)=C(C(N)=O)C(=O)[C@@]2(O)C(O)=C3C(=O)c4c(O)cccc4[C@@](C)(O)[C@H]3[C@H](O)[C@@H]12` [OXYTETRACYCLINE], the inhibition at 50 µM was found to be 94%.

As to `COc1cc2c(cc1-c1cc3cc4ccoc4cc3oc1=O)OCO2` [PACHYRRHIZIN], the “Inhibition (%)” value is given as 1.

`CC(=O)O[C@H]1C[C@@H]2CC[C@@H]3[C@H](CC[C@@]4(C)[C@H]3C[C@H]([N+]3(C)CCCCC3)[C@@H]4OC(C)=O)[C@@]2(C)C[C@@H]1[N+]1(C)CCCCC1` [PANCURONIUM BROMIDE]: the inhibition at 50 µM came out at 0%.

As for `CC(C)(CO)[C@@H](O)C(=O)NCCC(=O)NCCSSCCNC(=O)CCNC(=O)[C@H](O)C(C)(C)CO` [PANTETHINE], the inhibition at 50 µM was 0%.

Regarding `COc1ccnc(C[S+]([O-])c2nc3ccc(OC(F)F)cc3[nH]2)c1OC` (stereo not drawn) [PANTOPRAZOLE], the inhibition at 50 µM stood at 3%.

For `COc1ccc(Cc2nccc3cc(OC)c(OC)cc23)cc1OC` [PAPAVERINE HYDROCHLORIDE], the inhibition at 50 µM was found to be 1%.

On to `Oc1ccc(Cl)cc1` [PARACHLOROPHENOL], for which the inhibition at 50 µM was 1%.

`N=C1C=CC(=C(c2ccc(N)cc2)c2ccc(N)cc2)C=C1` [PARA[…]]: the inhibition at 50 µM came to 138%.

For the compound `NC[C@@H]1O[C@H](O[C@H]2[C@@H](O)[C@H](O[C@@H]3[C@@H](O)[C@H](N)C[C@H](N)[C@H]3O[C@H]3O[C@H](CO)[C@@H](O)[C@H](O)[C@H]3N)O[C@@H]2CO)[C@H](N)[C@@H](O)[C@@H]1O` [PAROMOMYCIN SULFATE], the inhibition at 50 µM amounted to 3%.

Take `Fc1ccc([C@@H]2CCNC[C@H]2COc2ccc3c(c2)OCO3)cc1` [PAROXETINE HYDROCHLORIDE]: the inhibition at 50 µM was found to be 1%.

For the compound `C=C1C(=O)O[C@H]2[C@H]1CC/C(C)=C/CC[C@@]1(C)O[C@@H]21` [PARTHENOLIDE], the inhibition at 50 µM stood at 3%.

In the case of `O=C1C=C2C(=CCOC2O)O1` (stereo not drawn) [PATULIN], the inhibition at 50 µM was 99%.

With `CCn1cc(C(=O)O)c(=O)c2cc(F)c(N3CCN(C)CC3)cc21.CS(=O)(=O)O` [PEFLOXACINE MESYLATE], the “Inhibition (%)” value was determined as 2.

Turning to `CN1C(C)(C)CCCC1(C)C` [PEMPIDINE TARTRATE], the inhibition at 50 µM came out at 2%.

Take `CC1(C)S[C@@H]2[C@H](NC(=O)Cc3ccccc3)C(=O)N2[C@H]1C(=O)O` [PENICILLIN G POTASSIUM]: the inhibition at 50 µM stood at 4%.

On to `C1CCc2nnnn2CC1` [PENTYLENETETRAZOL], for which the inhibition at 50 µM came out at 0%.

On to `C1CCC(C(CC2CCCCN2)C2CCCCC2)CC1` (stereo not drawn) [PERHEXILINE MALEATE], for which the inhibition at 50 µM turned out to be 1%.

Regarding `N#Cc1ccc2c(c1)N(CCCN1CCC(O)CC1)c1ccccc1S2` [PERICIAZINE], the inhibition at 50 µM came to 4%.

`CCC[C@H](N[C@@H](C)C(=O)N1[C@H](C(=O)O)C[C@@H]2CCCC[C@@H]21)C(=O)OCC` [PERINDOPRIL ERBUMINE]: the inhibition at 50 µM stood at 15%.

On to `CC(=O)OCC(OC(C)=O)C(OC(C)=O)C(OC(C)=O)C(OC(C)=O)C(COC(C)=O)OC(C)=O` (stereo not drawn) [PERSITOL HEPTAACETATE], for which the “Inhibition (%)” value worked out at 3.

For `CO[C@H]1[C@H](O)[C@H](O[C@H]2CC[C@@]3(C=O)[C@H](CC[C@@H]4[C@@H]3CC[C@]3(C)[C@@H](C5=CC(=O)OC5)CC[C@]43O)C2)O[C@@H](C)[C@@H]1O` [PERUVOSIDE], the inhibition at 50 µM turned out to be 1%.

With `NCC(=O)c1ccccc1` [PHENACYLAMINE HYDROCHLORIDE], the inhibition at 50 µM worked out at 1%.

As for `[H]/N=C(/N)N/C(=N/[H])NCCc1ccccc1` [PHENFORMIN HYDROCHLORIDE], the inhibition at 50 µM turned out to be 0%.

As to `CN(C)CCC(c1ccccc1)c1ccccn1` (stereo not drawn) [PHENIRAMINE MALEATE], the inhibition at 50 µM was found to be 3%.

With `O=C1OC(c2ccc(O)cc2)(c2ccc(O)cc2)c2ccccc21` [PHENOLPHTHALEIN], the inhibition at 50 µM stood at 0%.

As for `CC(COc1ccccc1)N(CCCl)Cc1ccccc1` (stereo not drawn) [PHENOXYBENZAMINE HYDROCHLORIDE], the inhibition at 50 µM was determined as 1%.

As for `CC(C)(N)Cc1ccccc1` [PHENTERMINE], the inhibition at 50 µM was found to be 15%.

Take `Cc1ccc(N(CC2=NCCN2)c2cccc(O)c2)cc1` [PHENTOLAMINE HYDROCHLORIDE]: the inhibition at 50 µM was determined as 0%.

With `CCCCC1C(=O)N(c2ccccc2)N(c2ccccc2)C1=O` [PHENYLBUTAZONE], the inhibition at 50 µM stood at 0%.

As to `CC(=O)c1c(O)cc(O)cc1O` [PHLORACETOPHENONE], the “Inhibition (%)” value was 1.

As to `O=C(CCc1ccc(O)cc1)c1c(O)cc(O)cc1O` [PHLORETIN], the inhibition at 50 µM turned out to be 60%.

Consider `O=C(O)c1ccccc1C(=O)Nc1ccc(S(=O)(=O)Nc2nccs2)cc1` [PHTHALYLSULFATHIAZOLE], for which the inhibition at 50 µM is 1%.

For `CNC(=O)Oc1ccc2c(c1)[C@]1(C)CCN(C)[C@@H]1N2C` [PHYSOSTIGMINE SALICYLATE], the inhibition at 50 µM was 1%.

Regarding `CC(C)(O)[C@@H]1[C@H]2OC(=O)[C@@H]1[C@]1(O)C[C@H]3O[C@]34C(=O)O[C@H]2[C@]14C` [PICROTIN], the inhibition at 50 µM was found to be 1%.

For the compound `CN1CCC(=C2c3ccccc3Sc3ccccc32)CC1` [PIMETHIXENE MALEATE], the inhibition at 50 µM came out at 0%.

As to `CCc1ccc(CCOc2ccc(CC3SC(=O)NC3=O)cc2)nc1` (stereo not drawn) [PIOGLITAZONE HYDROCHLORIDE], the inhibition at 50 µM was 0%.

For `O=C(O)/C=C/C=C/c1ccc2c(c1)OCO2` [PIPERIC ACID], the inhibition at 50 µM amounted to 0%.

With `O=C(/C=C/C=C/c1ccc2c(c1)OCO2)N1CCCCC1` [PIPERINE], the inhibition at 50 µM worked out at 1%.

Take `O=C(O)c1ccc2c(c1)OCO2` [PIPERONYLIC ACID]: the inhibition at 50 µM stood at 1%.

Take `Cl.c1cnc(N2CCN(Cc3ccc4c(c3)OCO4)CC2)nc1` [PIRIBEDIL HYDROCHLORIDE]: the “Inhibition (%)” value was determined as 3.

Take `CCn1cc(C(=O)O)c(=O)c2cnc(N3CCCC3)nc21` [PIROMIDIC ACID]: the inhibition at 50 µM was 19%.

For the compound `O=C(O)[C@@H](O)[C@](O)(Cc1ccc(O)cc1)C(=O)O` [PISCIDIC ACID], the inhibition at 50 µM came to 2%.

As for `CC(C)=CCc1c2c(c3occ(-c4ccc(O)c(O)c4)c(=O)c3c1O)C=CC(C)(C)O2` [POMIFERIN], the inhibition at 50 µM stood at 2%.

For `C[n+]1ccccc1/C=N/O` [PRALIDOXIME CHLORIDE], the inhibition at 50 µM is 1%.

In the case of `O=C(C1CCCCC1)N1CC(=O)N2CCc3ccccc3C2C1` (stereo not drawn) [PRAZIQUANTEL], the inhibition at 50 µM stood at 0%.

With `CC(=O)OCC(=O)[C@@]1(O)CC[C@H]2[C@@H]3CCC4=CC(=O)C=C[C@]4(C)[C@H]3[C@@H](O)C[C@@]21C` [PREDNISOLONE ACETATE], the inhibition at 50 µM was 0%.

For `C[C@]12C=CC(=O)C=C1CC[C@@H]1[C@@H]2[C@@H](O)C[C@@]2(C)[C@H]1CC[C@]2(O)C(=O)COP(=O)([O-])[O-].[Na+].[Na+]` [PREDNISOLONE SODIUM PHOSPHATE], the “Inhibition (%)” value is given as 0.

With `CC(=O)[C@H]1CC[C@H]2[C@@H]3CC=C4C[C@@H](OC(=O)CCC(=O)O)CC[C@]4(C)[C@H]3CC[C@]12C` [PREGNENOLONE SUCCINATE], the inhibition at 50 µM was determined as 4%.

What is called inhibition is the relative decrease from the control value, in per cent.
